Where two headings read alike, the source gives them in different places.

This assay relates to β-catenin-TCF-mediated reporter transcription activity in Colo 205 cells. The experiment in a line: Colo 205 reporter assay (TCF/LEF luciferase). Type of assay: cell-based. The note with it: Colo 205 TCF/LEF luciferase reporter, five hours after addition of compound, read-out: TCF reporter Colo205 IC50. Put shortly:
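Luciferase signal from a TCF/LEF-driven reporter, stably integrated in Colo 205 colon cancer cells, was measured 5 h after compound addition.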
For orientation: Reporter assays use an easily measured gene product as a stand-in for the process of interest.

In the case of `Cc1nc(NCc2cnn(Cc3ccc(Cl)nc3)c2)nc2c1NC(=O)[C@H](C(C)C)N2C` [Compound 414, (7S)-2-(((1-((6-chloropyridin-3-yl)methyl)-1H-pyrazol-4-yl)methyl)amino)-7-isopropyl-4,8-dimethyl-7,8-dihydropteridin-6(5H)-one], the IC50 (commonly the concentration at which inhibition is half-maximal) (Homo sapiens, COLO 205, 5 h) was below 300 nM.
With `CC[C@H]1C(=O)Nc2c(C)nc(NCc3cnn(Cc4ccc(OC(F)F)nc4)c3)nc2N1C` [Compound 417, (7S)-2-(((1-((6-(difluoromethoxy)pyridin-3-yl)methyl)-1H-pyrazol-4-yl)methyl)amino)-7-ethyl-4,8-dimethyl-7,8-dihydropteridin-6(511)-one], the IC50 is below 300 nM.
With `Cc1nc(NCc2cnn(Cc3ccc(OC(F)F)nc3)c2)nc2c1NC(=O)[C@H](C(C)C)N2C` [Compound 422, (7S)-2-(((1-((6-(difluoromethoxy)pyridin-3-yl)methyl)-1H-pyrazol-4-yl)methyl)amino)-7-isopropyl-4,8-dimethyl-7,8-dihydropteridin-6(5H)-one], for the setting “Homo sapiens, COLO 205, 5 h”, the IC50 is below 300 nM.
The same measure, in the same setting: under `CC[C@H]1C(=O)Nc2c(C)nc(NCc3cnn(Cc4cnc(Cl)c(F)c4)c3)nc2N1C` [Compound 426, (7S)-2-(((1-((6-chloro-5-fluoropyridin-3-yl)methyl)-1H-pyrazol-4-yl)methyl)amino)-7-ethyl-4,8-dimethyl-7,8-dihydropteridin-6(5H)-one] stands below 300 nM; under `COc1ccc(Cn2cc(CNc3nc(C)c4c(n3)N(C)[C@@H](C(C)C)C(=O)N4)cn2)cn1` [Compound 429, (7S)-7-isopropyl-2-(((1-((6-methoxypyridin-3-yl)methyl)-1H-pyrazol-4-yl)methyl)amino)-4,8-dimethyl-7,8-dihydropteridin-6(5H)-one], below 300 nM.
Take `CC[C@H]1C(=O)Nc2c(C)nc(NCc3cnn(Cc4ccc(Cl)nc4)c3)nc2N1C` [Compound 432, (7S)-2-(((1-((6-chloropyridin-3-yl)methyl)-1H-pyrazol-4-yl)methyl)amino)-7-ethyl-4,8-dimethyl-7,8-dihydropteridin-6(5H)-one]: for the setting “Homo sapiens, COLO 205, 5 h”, the IC50 was below 300 nM.
For the compound `CC[C@H]1C(=O)Nc2c(C)nc(NCc3cnn(Cc4ccc(OCC(F)(F)F)nc4)c3)nc2N1C` [Compound 433, (7S)-7-ethyl-4,8-dimethyl-2-(((1-((6-(2,2,2-trifluoroethoxy)pyridin-3-yl)methyl)-1H-pyrazol-4-yl)methyl)amino)-7,8-dihydropteridin-6(5H)-one], the IC50 (Homo sapiens, COLO 205, 5 h) was below 300 nM.
Turning to `Cc1nc(NCc2cnn(Cc3ccc(OCC(F)(F)F)nc3)c2)nc2c1NC(=O)[C@H](C1CC1)N2C` [Compound 435, (7S)-7-cyclopropyl-4,8-dimethyl-2-(((1-((6-(2,2,2-trifluoroethoxy)pyridin-3-yl)methyl)-1H-pyrazol-4-yl)methyl)amino)-7,8-dihydropteridin-6(5H)-one], the IC50 (Homo sapiens, COLO 205, 5 h) is below 300 nM.
Consider `Cc1nc(NCc2cnn(Cc3ccc(Cl)nc3)c2)nc2c1NC(=O)[C@H](C(C)(C)C)N2C` [Compound 438, (7S)-7-(tert-butyl)-2-(((1-((6-chloropyridin-3-yl)methyl)-1H-pyrazol-4-yl)methyl)amino)-4,8-dimethyl-7,8-dihydropteridin-6(5H)-one], for which the IC50 (Homo sapiens, COLO 205, 5 h) is below 300 nM.
As for `Cc1nc(NCc2cnn(Cc3ccc(C(F)(F)F)nc3)c2)nc2c1NC(=O)[C@H](CCO)N2` [Compound 439, (S)-7-(2-hydroxyethyl)-4-methyl-2-(((1-((6-(trifluoromethyl)pyridin-3-yl)methyl)-1H-pyrazol-4-yl)methyl)amino)-7,8-dihydropteridin-6(5H)-one], the IC50 (Homo sapiens, COLO 205, 5 h) is at least 5000 nM.
Same read-out and setting: in the case of `Cc1nc(NCc2cnn(Cc3ccc(C4CC4)nc3)c2)nc2c1NC(=O)[C@H](C1CC1)N2C` [Compound 441, (7S)-7-cyclopropyl-2-(((1-((6-cyclopropylpyridin-3-yl)methyl)-1H-pyrazol-4-yl)methyl)amino)-4,8-dimethyl-7,8-dihydropteridin-6(5H)-one] it was below 300 nM; in that of `Cc1nc(NCc2cnn(Cc3ccc(C4CC4)nc3)c2)nc2c1NC(=O)[C@H](C(C)C)N2C` [Compound 442, (7S)-2-(((1-((6-cyclopropylpyridin-3-yl)methyl)-1H-pyrazol-4-yl)methyl)amino)-7-isopropyl-4,8-dimethyl-7,8-dihydropteridin-6(5H)-one], below 300 nM; in that of `Cc1nc(NCc2cnn(CCc3ccc(C(F)(F)F)nc3)c2)nc2c1NC(=O)[C@H](C)N2C` [Compound 444, (7S)-4,7,8-trimethyl-2-(((1-(2-(6-(trifluoromethyl)pyridin-3-yl)ethyl)-1H-pyrazol-4-yl)methyl)amino)-7,8-dihydropteridin-6(5H)-one], 300 to 1000 nM.
On the same count and under the same terms, under `Cc1nc(NCc2cnn(Cc3ccnc(Cl)c3)c2)nc2c1NC(=O)[C@H](C(C)C)N2C` [Compound 446, (7S)-2-(((1-((2-chloropyridin-4-yl)methyl)-1H-pyrazol-4-yl)methyl)amino)-7-isopropyl-4,8-dimethyl-7,8-dihydropteridin-6(5H)-one] stands below 300 nM.
With `Cc1nc(NCc2cnn(Cc3ccnc(N(C)C)c3)c2)nc2c1NC(=O)[C@H](C(C)C)N2C` [Compound 448, (S)-2-(((1-((2-(dimethylamino)pyridin-4-yl)methyl)-1H-pyrazol-4-yl)methyl)amino)-7-isopropyl-4,8-dimethyl-7,8-dihydropteridin-6(5H)-one], the IC50 (Homo sapiens, COLO 205, 5 h) is below 300 nM.
The same measure, in the same setting: under `COc1c(F)cc(Cn2cc(CNc3nc(C)c4c(n3)N(C)[C@@H](C(C)C)C(=O)N4)nn2)cc1F` [Compound 451, (S)-2-(((1-(3,5-difluoro-4-methoxybenzyl)-1H-1,2,3-triazol-4-yl)methyl)amino)-7-isopropyl-4,8-dimethyl-7,8-dihydropteridin-6(5H)-one] stands below 300 nM; under `Cc1nc(NCc2cn(Cc3cc(F)c(F)c(F)c3)nn2)nc2c1NC(=O)[C@H](C(C)C)N2C` [Compound 452, (S)-7-isopropyl-4,8-dimethyl-2-(((1-(3,4,5-trifluorobenzyl)-1H-1,2,3-triazol-4-yl)methyl)amino)-7,8-dihydropteridin-6(5H)-one], below 300 nM; under `Cc1nc(NCc2cc(C)n(-c3ccc(C(F)(F)F)cc3)c2C)nc2c1NC(=O)[C@H](C(C)C)N2C` [Compound 453, (S)-2-(((2,5-dimethyl-1-(4-(trifluoromethyl)phenyl)-1H-pyrrol-3-yl)methyl)amino)-7-isopropyl-4,8-dimethyl-7,8-dihydropteridin-6(5H)-one], below 300 nM.
With `Cc1nc(NCc2cnn(Cc3ccc(F)cn3)c2)nc2c1NC(=O)[C@H](C(C)C)N2C` [Compound 454, (S)-2-(((1-((5-fluoropyridin-2-yl)methyl)-1H-pyrazol-4-yl)methyl)amino)-7-isopropyl-4,8-dimethyl-7,8-dihydropteridin-6(5H)-one], the IC50 (Homo sapiens, COLO 205, 5 h) was below 300 nM.
In the case of `Cc1nc(NCc2cnn(Cc3cc(F)c(F)c(F)c3)c2)nc2c1NC(=O)[C@H](C1CC1)N2C` [Compound 456, (S)-7-cyclopropyl-4,8-dimethyl-2-(((1-(3,4,5-trifluorobenzyl)-1H-pyrazol-4-yl)methyl)amino)-7,8-dihydropteridin-6(5H)-one], the IC50 (Homo sapiens, COLO 205, 5 h) is below 300 nM.
For the compound `COc1c(F)cc(Cn2cc(CNc3nc(C)c4c(n3)N(C)[C@@H](C3CC3)C(=O)N4)cn2)cc1F` [Compound 457, (S)-7-cyclopropyl-2-(((1-(3,5-difluoro-4-methoxybenzyl)-1H-pyrazol-4-yl)methyl)amino)-4,8-dimethyl-7,8-dihydropteridin-6(5H)-one], the half-maximal inhibitory concentration (IC50) (Homo sapiens, COLO 205, 5 h) is below 300 nM.
Turning to `Cc1nc(N[C@H]2C[C@@H](NC(=O)Nc3ccc(F)cc3)C2)nc2c1NC(=O)[C@H](C)N2C` [Compound 458, 1-(4-fluorophenyl)-3-(cis-3-(((S)-4,7,8-trimethyl-6-oxo-5,6,7,8-tetrahydropteridin-2-yl)amino)cyclobutyl)urea], the IC50 (Homo sapiens, COLO 205, 5 h) is 300 to 1000 nM.
Still for that read-out and setting: under `Cc1nc(N[C@H]2C[C@H](NC(=O)Nc3ccc(F)cc3)C2)nc2c1NC(=O)[C@H](C)N2C` [Compound 459, 1-(4-fluorophenyl)-3-(trans-3-(((S)-4,7,8-trimethyl-6-oxo-5,6,7,8-tetrahydropteridin-2-yl)amino)cyclobutyl)urea] stands at least 5000 nM; under `Cc1nc(N[C@H]2C[C@@H](NC(=O)Nc3ccc(F)c(F)c3F)C2)nc2c1NC(=O)[C@H](C)N2C` [Compound 460, 1-(2,3,4-trifluorophenyl)-3-(cis-3-(((S)-4,7,8-trimethyl-6-oxo-5,6,7,8-tetrahydropteridin-2-yl)amino)cyclobutyl)urea], below 300 nM.
Consider `Cc1nc(N[C@H]2C[C@H](NC(=O)Nc3ccc(F)c(F)c3F)C2)nc2c1NC(=O)[C@H](C)N2C` [Compound 461, 1-(2,3,4-trifluorophenyl)-3-(trans-3-(((S)-4,7,8-trimethyl-6-oxo-5,6,7,8-tetrahydropteridin-2-yl)amino)cyclobutyl)urea], for which the IC50 (Homo sapiens, COLO 205, 5 h) lay within 1000 to 5000 nM.
Same read-out and setting: in the case of `Cc1nc(N[C@H]2C[C@@H](NC(=O)Nc3ccc(Cl)nc3)C2)nc2c1NC(=O)[C@H](C)N2C` [Compound 462, 1-(6-chloropyridin-3-yl)-3-(cis-3-(((S)-4,7,8-trimethyl-6-oxo-5,6,7,8-tetrahydropteridin-2-yl)amino)cyclobutyl)urea] it was 1000 to 5000 nM.
Turning to `Cc1nc(N[C@H]2C[C@H](NC(=O)Nc3ccc(Cl)nc3)C2)nc2c1NC(=O)[C@H](C)N2C` [Compound 463, 1-(6-chloropyridin-3-yl)-3-(trans-3-(((S)-4,7,8-trimethyl-6-oxo-5,6,7,8-tetrahydropteridin-2-yl)amino)cyclobutyl)urea], under “Homo sapiens, COLO 205, 5 h”, the IC50 is at least 5000 nM.
With `Cc1nc(N[C@H]2C[C@@H](NC(=O)Oc3ccc(F)cc3)C2)nc2c1NC(=O)[C@H](C)N2C` [Compound 464, 4-fluorophenyl (cis-3-(((S)-4,7,8-trimethyl-6-oxo-5,6,7,8-tetrahydropteridin-2-yl)amino)cyclobutyl)carbamate], the half-maximal inhibitory concentration (IC50) (Homo sapiens, 5 h) lay in the range of 300 to 1000 nM.
